One experiment relates to CCRF-CEM. Kind of experiment: Proliferation (3H-thymidine) of CCRF-CEM. Format: cell-based, human. The source says:
CCRF-CEM, CEM/C1, CEM/C2, CEM-C7, Jurkat, Loucy, Molt-4, HSB-2, SUP-T1, Hut 78, HH, Hut 102, MO, and H9 T-leukemia and T-lymphoma cell lines were purchased from the American Type Culture Collection (Manassas, Va., USA). All of the cell lines were initially expanded and cryopreserved within one month of receipt. Cells were typically used for 6 months at which time a fresh vial of cryopreserved cells was used. Total T cells from healthy donors were isolated via negative selection followed by positive selection using a CD3+ selection kit (Invitrogen, Carlsbad, Calif.). T cells were isolated from patients with T-ALL bone marrow or peripheral blood samples containing more than 70% leukemia cells using a CD2+ isolation kit (STEMCELL Technologies, Vancouver, Canada). All tissues were collected under institutional IRB-approved protocols and all participants gave written informed assent/consent. For in vitro experiments, T-ALL cells were cultured in AIM-V medium supplemented with 20% human AB serum in the presence of recombinant human stem cell factor (50 ng/mL; Amgen, Thousand Oaks, Calif.), insulin (20 nM; Sigma-Aldrich, St Louis, Mo., USA) and IL-7 (50 ng/mL; R&D Systems, Minneapolis, Minn., USA). In other experiments, protein lysate was collected using the Full Moon Biosystems (Sunnyvale, Calif., USA) buffer prior to protein examination by western blot or protein array.
Cells were cultured in a 96-well plate (Corning Costar, Corning, N.Y., USA) with various concentrations of TLR ligands 1-9, starting at 10 μg/ml, in a final volume of 200 ul. TLR ligands were diluted 2-fold. Cell lines (25-40×10^3/well) were cultured for 54 hours, whereas fresh patient-derived T-ALL cells (200×10^3/well) were cultured for 30 hours prior to adding [^3H]-thymidine for 18 hours. After this time point, cells were harvested with a Packard Filter-Mate-96 cell harvester (Perkin Elmer, Waltham, Mass., USA) and counted on Packard Top Count-NXT (Perkin Elmer, Waltham, Mass., USA). Results were expressed as average counts per minute (cpm). In some experiments CCRF-CEM cells were pre-treated with TLR1-TLR2 ligand (Pam3CysK4; 2.5 ug/ml) for 48 hrs, washed, and then cultured in the presence of varying concentrations of FBS. Forty-eight hours later, proliferation (±SD) was determined by ^3H-thymidine incorporation. Alternatively, apoptosis was measured by flow cytometry after staining cells with Annexin-V (BD Pharmingen, San Diego, Calif., USA) and propidium iodide (Sigma). Cell number was counted under microscopy by staining cells with trypan blue.
The following TLR ligands were purchased from Invivogen (San Diego, Calif., USA): tripalmitoyl-S-(bis(palmitoyloxy)propyl)-Cys-Ser-(Lys)3-Lys (TLR1-2); Poly I:C (TLR3); ultrapure S. Minnesota Lipopolysaccharide (TLR4); S. typhimurium flagellin (TLR5); FSL-1 (TLR2/6); Imiquimod (TLR7); ssRNA40/Lyovec (TLR8); CpG-ODN 2006 (TLR9).

The test system of a further experiment is patient T-ALL cells. Kind of experiment: Patient T-ALL numbers in NSG mice (flow cytometry). Format: in vivo. Particulars: patient T-ALL cells in irradiated NSG mice; 10 mg/Kg i.p. days 7, 10, 13; FIG. 12. As for the experimental part: FIG. 12. […] NSG mice were irradiated (400 cGy) one day prior to intravenous injection of patient T-ALL cells (6×10^6 cells/mouse). Once 100 T-ALL cells/ul of blood were detected, mice were received one intraperitoneal injection with IRAK-1,-4 inhibitor (10 mg/Kg) or an equal volume of control vehicle (DMSO) on days 7, 10 and 13. Numbers of T-ALL cells (CD7^+) in peripheral blood were determined on day 27 and D21 by flow cytometry as described in FIG. 1. All the data shown are representative of two independent experiments (±SD) with three mice per group. Representative dot plots from bone marrow are shown in A (left panel). ANOVA; *P<0.05.
CCRF-CEM (2×10^6) cells were injected intravenously (i.v.) into female NOD.Cg-Prkdc^scid Il2rg^tm1WJl/SzJ IL2RG (NSG) mice (Jackson Laboratories, Bar Harbor, Me.). […] In some experiments mice were injected i.v. with TLR1-TLR2 ligand (2.5 μg) two days after injecting cells. In other experiments mice were injected intraperitoneally (i.p.) with IRAK-1,-4 inhibitor (10 mg/kg) 3, 6, and 9 days (CCRF-CEM cells) or 7, 10, and 13 days (patient T-ALL cells) after detecting CD7^+ T-ALL cells in circulation. The numbers of T-ALL cells in the bone marrow, spleen, liver, and in circulation were determined by staining cells with anti-human CD7 and/or CD5. […]
(In general: Flow cytometry measures light scatter and fluorescence of single cells or particles in a stream.)

A further experiment concerns G361 melanoma cells. Kind of experiment: Western blot of IRAK phosphorylation in G361. Particulars: Pam3CysK4 2.5 μg/ml or flagellin 100 ng/ml, 48 hours, FIG. 22B. Type of experiment: cell-based, human. As for the experimental part:
FIG. 22. Effects of TLR stimulation and cytokines on IRAK phosphorylation in melanoma cells. (A) A375 cells were cultured in the presence of anti-IL-18, anti-CXCL-1, (R&D Systems), anti-IL-1 (BioLegend), or mouse IgG (Sigma-Aldrich) all at 10 μg/ml. Forty-eight hours later the levels of the indicated proteins were determined by western blot. (B) A375 cells, which express p-IRAK-1 and p-IRAK-4, and G361 melanoma cells, which express very low levels of p-IRAK-1 (and express TLR5) were cultured in the presence of TLR1-TLR2 agonist (Pam3CysK4; 2.5 μg/ml) or TLR5 (flagellin; 100 ng/ml; InVivogen). Forty-eight hours later total protein was collected and the levels of the indicated proteins were examined by western blot.
Total cell extracts were prepared from melanoma cells. […] Melanoma tissue arrays were purchased from US Biomax, Inc (Rockville, Md.). For immunohistochemical staining samples were stained with mouse monoclonal anti-human phosphor-IRAK.-4 antibody (Abnova; dilution, 3.5 μg/ml) or normal mouse serum. Tissue histology sections (5-μm-thick) were deparaffinized, hydrated, heated in boiling 10 mmol/L sodium citrate (pH 6.0), for antigen retrieval, for 30 min and washed in Tris buffer. Peroxide blocking was done with 3% […] in methanol at room temperature for 15 min, followed by 10% fetal bovine serum in TBS-t for 30 min at room temperature. Primary antibody incubation was done overnight at 4° C. Secondary antibody incubation with horse anti-mouse (1:200; Vector Laboratories, Burlingame, Calif.) was done for 1 hr, followed by application of diaminobenzidine chromogen for 5 min. The slides were then counterstained with hematoxylin and topped with a coverslip. IHC specimens were analyzed using “quick score” system in which the intensity of the immunohistochemical reaction was scored by multiplying the intensity 1 (weak), 2 (moderate), and 3 (strong) and the proportion of cells staining positively 0 (<10%), 1 (10-25%), 2 (26-50%), 3 (51-75%) or 4 (>75%).

2 compounds from patent US9464326B2, “Total and phosphorylated IL-1 receptor-associated kinase-1 and IL-1 receptor-associated kinase-4 as a biomarker for cancer progression and chemotherapy resistance” (University of Maryland, Baltimore, priority 2012, dated 2016) can be followed below.

Turning to `O=C(Nc1nc2ccccc2n1CCN1CCOCC1)c1cccc([N+](=O)[O-])c1` [IRAK-1,-4 inhibitor], the “reduction of proliferation of TLR1-TLR2-stimulated cells” value in the experiment with CCRF-CEM (IRAK-1,-4 inhibitor 5 μM with TLR1-TLR2 agonist 1 μg/ml, 48 h, FIG. 3A) was 72%. In the experiment on CCRF-CEM (concentration-dependent, 48 h, FIG. 3B), the “lowest concentration effective in reducing proliferation” value was 1.5 µM. In the experiment with patient T-ALL cells, the “T-ALL numbers (CD7+) in peripheral blood” value is given as “reduces T-ALL numbers”.

Turning to “tripalmitoyl-S-(bis(palmitoyloxy)propyl)-Cys-Ser-(Lys)3-Lys [Pam3Cysk4]”, in the experiment with CCRF-CEM (3H-thymidine uptake, 72 h), the “Proliferative effects of TLR ligands” value is recorded as “+ (enhanced proliferation by 25% or greater)”. Besides, in the experiment with CCRF-CEM (FIG. 1A), the “concentration at which cells proliferated in response to the ligand” value was determined as 1.2 µg/mL and the “effect on proliferation (in words)” value was “proliferated”. The “TLR ligand concentration in parentheses below the symbol” value with CCRF-CEM (no unit in table (μg/ml)) is reported as “(1.2)”. Also, in the experiment on G361 melanoma cells, the “p-IRAK-1 or p-IRAK-4 expression levels” value was “neither TLR-1-TLR2 agonist (Pam3CysK4), nor TLR5 (Flagellin) stimulation increased or induced”.
